Several values for one entry are separate records, joined by “and”; a condition that tells them apart may be missing. Equal entries are not always repeated.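 The compound was tested at five concentrations on cells cultured in 96-well plates, with a 48-hour exposure period. Abbreviation: GI50, concentration required for 50% inhibition of growth.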 Activity calls are given as the source filed them. No stated cut-off is given here; in the data, active = GI50 up to about 1.1 µM and inactive = higher.
Experiments:
Test in all cases: NCI-60 cell line screen, 48 h
[1] = tested on: HCT-116
[2] = tested on: OVCAR-3
[3] = tested on: RXF 393
[4] = tested on: A498
[5] = tested on: HL-60
[6] = tested on: NCI/ADR-RES
[7] = tested on: MOLT-4
[8] = tested on: LOX IMVI
[9] = tested on: IGROV-1
[10] = tested on: 786-0
[11] = tested on: MDA-MB-435
[12] = tested on: UACC-62
[13] = tested on: Hs-578T
[14] = tested on: OVCAR-5
[15] = tested on: NCI-H23
[16] = tested on: MDA-N
[17] = tested on: SW-620
[18] = tested on: NCI-H460
[19] = tested on: HT-29
[20] = tested on: CCRF-CEM

Row | SMILES | GI50 [1] | GI50 [2] | GI50 [3] | GI50 [4] | GI50 [5] | GI50 [6] | GI50 [7] | GI50 [8] | GI50 [9] | GI50 [10] | GI50 [11] | GI50 [12] | GI50 [13] | GI50 [14] | GI50 [15] | GI50 [16] | GI50 [17] | GI50 [18] | GI50 [19] | GI50 [20]
1 | COc1cc2c(cc1OC)C1Cc3cc(OC)c(OC)cc3C(C2)N1C | 26.9 µM (inactive) | > 100 µM (inactive) | > 75 µM (inactive) | > 75 µM (inactive) | 14.9 µM (inactive) | > 75 µM (inactive) | > 75 µM (inactive) | 48 µM (inactive) | > 75 µM (inactive) | > 75 µM (inactive) | > 75 µM (inactive) | 61.1 µM (inactive) | > 75 µM (inactive) | > 100 µM (inactive) | > 100 µM (inactive) and 54.7 µM (inactive) | 63.1 µM (inactive) | > 100 µM (inactive) |  |  | 
2 | O=C1C/C(=N/c2ccc(Cl)cc2)C(c2ccccc2)N1c1ccccc1 (stereo not given) | 8.89 µM (inactive) | 2.99 µM (inactive) | 35 µM (inactive) | 19.3 µM (inactive) | 2.96 µM (inactive) | 7.06 µM (inactive) | 7.89 µM (inactive) | 6.05 µM (inactive) | 18.2 µM (inactive) | 38.4 µM (inactive) | 2.15 µM (inactive) | 1.43 µM (inactive) | 6.12 µM (inactive) |  | 10 µM (inactive) | 2.5 µM (inactive) | 10.2 µM (inactive) | 29 µM (inactive) | 5.62 µM (inactive) | 
3 | O/N=C1\C=Cc2nn(-c3ccccc3)nc2\C1=N/O | 2.65 µM (inactive) | 4.67 µM (inactive) |  |  | 2.03 µM (inactive) | 7.24 µM (inactive) | 2.55 µM (inactive) | 2.81 µM (inactive) | 2.79 µM (inactive) | 6.11 µM (inactive) | 2.74 µM (inactive) | 1.3 µM (inactive) | 1.85 µM (inactive) | 7.41 µM (inactive) | 3.77 µM (inactive) | 7.96 µM (inactive) | 5.41 µM (inactive) | 3.07 µM (inactive) | 4.85 µM (inactive) | 2.42 µM (inactive)
4 | C/C=C\C(CC(=O)O)CN1CCC2=C(C1)C(S(=O)(=O)C(F)(F)F)c1ccccc12 (stereo not given) | > 100 µM (inactive) | > 100 µM (inactive) | > 100 µM (inactive) | > 100 µM (inactive) |  | > 100 µM (inactive) | > 100 µM (inactive) |  | > 100 µM (inactive) | > 100 µM (inactive) | > 100 µM (inactive) | > 100 µM (inactive) | > 100 µM (inactive) | > 100 µM (inactive) | > 100 µM (inactive) | > 100 µM (inactive) | > 100 µM (inactive) | > 100 µM (inactive) | > 100 µM (inactive) | > 10 µM (inactive)
5 | CSc1nc(C)cc(Nc2ccc(O)c(CN3CCCCC3)c2)n1 | 27.8 µM (inactive) | > 100 µM (inactive) | 67.6 µM (inactive) | 23.1 µM (inactive) |  | > 100 µM (inactive) | 57.7 µM (inactive) | 33 µM (inactive) | 60.5 µM (inactive) | 23.1 µM (inactive) | 57.5 µM (inactive) | 60.8 µM (inactive) | > 100 µM (inactive) | 28.6 µM (inactive) | 77.4 µM (inactive) | 28 µM (inactive) | 71.9 µM (inactive) |  | 20.4 µM (inactive) | 
7 | Nc1nc(N)c2nc(CNc3ccc(C(=O)NC(CCNC(=O)c4ccccc4C(=O)O)C(=O)O)cc3)cnc2n1 (stereo not given) | 0.00502 µM (active) | 31.6 µM (inactive) |  | 0.054 µM (active) |  | < 0.0173 µM (active) | < 0.0154 µM (active) | 0.01 µM (active) | < 0.0212 µM (active) | 0.01 µM (active) | 0.01 µM (active) | < 0.0126 µM (active) | > 100 µM (inactive) | > 100 µM (inactive) | < 0.0226 µM (active) | 0.00785 µM (active) | 0.01 µM (active) | 0.01 µM (active) | 0.01 µM (active) | 0.01 µM (active)
8 | COc1ccc(C2=CN3CCC[C@H]3C=C2c2cc(O)c(OC)c(OC)c2)cc1OC | 0.00198 µM (active) | 0.00615 µM (active) | 0.00424 µM (active) | 0.005 µM (active) | 0.00351 µM (active) |  | 0.00351 µM (active) | 0.00163 µM (active) | 0.0104 µM (active) | 0.00371 µM (active) | 0.00284 µM (active) | 0.00405 µM (active) | 0.00539 µM (active) | 0.00561 µM (active) | 0.00378 µM (active) | 0.00337 µM (active) | 0.00337 µM (active) | 0.00316 µM (active) | 0.0056 µM (active) | 0.0033 µM (active)
9 | CCN(CC)c1nc(N(C)C)c2cc(OC)ccc2n1 | 11.2 µM (inactive) | 35.6 µM (inactive) | 24.3 µM (inactive) | 32.6 µM (inactive) | 16.6 µM (inactive) | 24.1 µM (inactive) | 18.5 µM (inactive) | 26.8 µM (inactive) | 30.8 µM (inactive) | 20.7 µM (inactive) | 30.1 µM (inactive) | 25.8 µM (inactive) | 31.2 µM (inactive) | 62.5 µM (inactive) | 29.6 µM (inactive) | 24.7 µM (inactive) | 24 µM (inactive) | 20 µM (inactive) | 10.2 µM (inactive) | 
10 | COc1ccc(/C(Br)=C2\OC(=O)c3ccccc32)cc1 | > 10 µM (inactive) | > 10 µM (inactive) | > 10 µM (inactive) |  | > 10 µM (inactive) | > 10 µM (inactive) | > 10 µM (inactive) | > 10 µM (inactive) | > 10 µM (inactive) | > 10 µM (inactive) | > 10 µM (inactive) | > 10 µM (inactive) | > 10 µM (inactive) | > 10 µM (inactive) | > 10 µM (inactive) | > 10 µM (inactive) | > 10 µM (inactive) | > 10 µM (inactive) | > 10 µM (inactive) | > 10 µM (inactive)
11 | CC(C)(C)OC(=O)N1C(C2=COc3ccccc3O2)=COc2ccccc21 | 23.9 µM (inactive) | 21.1 µM (inactive) | 5.18 µM (inactive) | 17.1 µM (inactive) | 19 µM (inactive) | 27.1 µM (inactive) | 17.1 µM (inactive) | 17.5 µM (inactive) | 9.75 µM (inactive) | 38.1 µM (inactive) | 31.3 µM (inactive) | 15.7 µM (inactive) | 41.5 µM (inactive) | 33.3 µM (inactive) | 29.7 µM (inactive) | 32.4 µM (inactive) | 24.3 µM (inactive) | 28.9 µM (inactive) | 32 µM (inactive) | 
12 | O=C(N/N=C\c1ccc([N+](=O)[O-])cc1)Nc1ccc2ccccc2c1 | 24.3 µM (inactive) | > 100 µM (inactive) | > 100 µM (inactive) | 24.2 µM (inactive) |  | 50.6 µM (inactive) | > 100 µM (inactive) | 69.7 µM (inactive) | 26.1 µM (inactive) | 17.2 µM (inactive) | 34.2 µM (inactive) | 28.1 µM (inactive) | 26 µM (inactive) | 34.8 µM (inactive) | 58.3 µM (inactive) | 40.7 µM (inactive) | 23.1 µM (inactive) | 18.5 µM (inactive) | 27.1 µM (inactive) | 35.3 µM (inactive)
13 | Cc1ccc(/C=C2\Sc3scc(-c4ccccc4)[n+]3C2=O)cc1 | 21.2 µM (inactive) | 31.4 µM (inactive) | 25.9 µM (inactive) |  | 2.69 µM (inactive) | 19.5 µM (inactive) | 30.1 µM (inactive) | 20.6 µM (inactive) | 18 µM (inactive) | 22.3 µM (inactive) | 9.27 µM (inactive) | 16.7 µM (inactive) | 3.38 µM (inactive) | 33.4 µM (inactive) | 17.5 µM (inactive) | 18 µM (inactive) | 20.6 µM (inactive) | 16.8 µM (inactive) | 24.7 µM (inactive) | 13.6 µM (inactive)
14 | C=C1CC(Cn2cc(Br)c(=O)[nH]c2=O)(c2ccc(-c3ccccc3)cc2)OC1=O (stereo not given) | 0.301 µM (active) | 1.63 µM (inactive) |  | 0.776 µM (active) | 0.0975 µM (active) | 1.41 µM (inactive) | 0.552 µM (active) | 0.582 µM (active) | 1.4 µM (inactive) | 1.02 µM (active) | 1.35 µM (inactive) | 1.12 µM (active) | 2.74 µM (inactive) | 4.8 µM (inactive) | 0.993 µM (active) | 0.83 µM (active) | 0.341 µM (active) | 6.25 µM (inactive) | 0.469 µM (active) | 0.165 µM (active)
15 | COc1cc2oc3c(c(=O)c2c(O)c1/C=C/C(C)C)C(C=C(C)C)Oc1cc(O)ccc1-3 (stereo not given) | 14.4 µM (inactive) | 15 µM (inactive) |  | 24.7 µM (inactive) | 17.8 µM (inactive) | 16.1 µM (inactive) | 4.83 µM (inactive) | 14.2 µM (inactive) | 13.5 µM (inactive) | 16.2 µM (inactive) | 15.9 µM (inactive) | 17.2 µM (inactive) | 19 µM (inactive) | 17 µM (inactive) | 15.7 µM (inactive) | 16.9 µM (inactive) | 16.1 µM (inactive) | 14.5 µM (inactive) | 14 µM (inactive) | 5.53 µM (inactive)

From ChEMBL document CHEMBL1201862, “PubChem BioAssay data set” (2004)
